Measurements reported in ChEMBL document CHEMBL1131355 (Bioorg Med Chem Lett, 1998).

Biological target: 5-hydroxytryptamine receptor 2A (Rattus norvegicus, UniProt P14842)
Assay: biochemical
Format: tissue-based, Frontal cortex, Membrane
Description: Compound was measured for the inhibition of [3H]ketanserin binding to rat frontal cortex membrane (5-HT2A receptor)

5-hydroxytryptamine receptor 2A, sequence (P14842 whole entry): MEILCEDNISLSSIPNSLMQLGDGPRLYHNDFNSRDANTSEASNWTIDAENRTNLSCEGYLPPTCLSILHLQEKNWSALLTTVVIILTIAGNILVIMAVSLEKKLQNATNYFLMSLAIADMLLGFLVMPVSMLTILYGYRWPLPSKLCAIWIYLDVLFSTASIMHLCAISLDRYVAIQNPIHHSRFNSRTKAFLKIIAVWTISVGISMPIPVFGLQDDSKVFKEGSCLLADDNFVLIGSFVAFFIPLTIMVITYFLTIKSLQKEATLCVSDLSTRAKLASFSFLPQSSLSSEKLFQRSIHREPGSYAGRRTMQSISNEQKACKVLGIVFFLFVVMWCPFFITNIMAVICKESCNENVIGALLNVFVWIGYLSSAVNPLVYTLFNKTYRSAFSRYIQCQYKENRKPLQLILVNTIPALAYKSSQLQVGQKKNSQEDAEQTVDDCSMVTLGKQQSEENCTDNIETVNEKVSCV

Ki [nM] | Structure (SMILES)
1.58 | O=C1CC(CN2CCC(c3noc4cc(F)ccc34)CC2)Cc2[nH]c3ccccc3c21 (stereo not drawn)
631 | COc1ccccc1N1CCN(CC2CC(=O)c3c([nH]c4ccccc34)C2)CC1 (stereo not drawn)
9.12 | O=C1CC(CN2CCC(C(=O)c3ccc(F)cc3)CC2)Cc2[nH]c3ccccc3c21 (stereo not drawn)
